The values that follow come from ChEMBL document CHEMBL1667722, “Radical scavenging and antioxidant activities of isocoumarins and a phthalide from the endophytic fungus Colletotrichum sp” (J Nat Prod, 2011).

Assay [1] is described as follows: Antioxidant activity assessed as inhibition of xanthine-xanthine oxidase generated superoxide anion radical production. The format is functional.
Another assay has as its system MOLT-3. Briefly: Cytotoxicity against human MOLT3 cells by XTT assay. The format is functional, cell-based.
Another assay deals with HepG2. Description: Cytotoxicity against human HepG2 cells by MTT assay. The format is functional, cell-based.
For another assay, the system named is HL-60. Description: Antioxidant activity in human HL60 cells assessed as inhibition of TPA-induced superoxide anion radical production. The format is functional, cell-based.
Assay [2] concerns the target Xanthine dehydrogenase/oxidase (Homo sapiens, UniProt P47989). Description: Inhibition of Xanthine oxidase.
The next assay concerns A549. Description: Cytotoxicity against human A549 cells by MTT assay. The format is functional, cell-based.
The next assay concerns the target T1, Aromatase (Homo sapiens, UniProt P11511).
T1 sequence (P11511 whole entry): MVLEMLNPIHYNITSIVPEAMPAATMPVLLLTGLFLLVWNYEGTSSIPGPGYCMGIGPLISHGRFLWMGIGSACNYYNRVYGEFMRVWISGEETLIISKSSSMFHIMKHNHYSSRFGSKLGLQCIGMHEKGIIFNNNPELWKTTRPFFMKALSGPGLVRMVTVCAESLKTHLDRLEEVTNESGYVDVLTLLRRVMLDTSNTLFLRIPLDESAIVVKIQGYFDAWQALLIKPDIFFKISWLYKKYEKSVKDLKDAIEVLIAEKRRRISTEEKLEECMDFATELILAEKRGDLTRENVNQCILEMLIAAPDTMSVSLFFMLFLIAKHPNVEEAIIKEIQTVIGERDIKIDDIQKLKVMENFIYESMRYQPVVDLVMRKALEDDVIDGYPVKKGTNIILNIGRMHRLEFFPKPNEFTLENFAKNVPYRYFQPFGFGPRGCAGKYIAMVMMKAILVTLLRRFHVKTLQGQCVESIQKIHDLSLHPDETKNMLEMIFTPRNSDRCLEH
Briefly: Inhibition of CYP19.

A short description of assay [3]: Cytotoxicity against human HuCCA1 cells by MTT assay. It is filed as functional, cell-based. The conditions noted are these: HuCC-A1.
Assay [4] has as its system Radical scavenging activity. Description: Antioxidant activity assessed as DPPH radical scavenging activity. The format is functional.

SMILES strings stand for the structures.

Sequence of Xanthine dehydrogenase/oxidase (P47989 whole entry): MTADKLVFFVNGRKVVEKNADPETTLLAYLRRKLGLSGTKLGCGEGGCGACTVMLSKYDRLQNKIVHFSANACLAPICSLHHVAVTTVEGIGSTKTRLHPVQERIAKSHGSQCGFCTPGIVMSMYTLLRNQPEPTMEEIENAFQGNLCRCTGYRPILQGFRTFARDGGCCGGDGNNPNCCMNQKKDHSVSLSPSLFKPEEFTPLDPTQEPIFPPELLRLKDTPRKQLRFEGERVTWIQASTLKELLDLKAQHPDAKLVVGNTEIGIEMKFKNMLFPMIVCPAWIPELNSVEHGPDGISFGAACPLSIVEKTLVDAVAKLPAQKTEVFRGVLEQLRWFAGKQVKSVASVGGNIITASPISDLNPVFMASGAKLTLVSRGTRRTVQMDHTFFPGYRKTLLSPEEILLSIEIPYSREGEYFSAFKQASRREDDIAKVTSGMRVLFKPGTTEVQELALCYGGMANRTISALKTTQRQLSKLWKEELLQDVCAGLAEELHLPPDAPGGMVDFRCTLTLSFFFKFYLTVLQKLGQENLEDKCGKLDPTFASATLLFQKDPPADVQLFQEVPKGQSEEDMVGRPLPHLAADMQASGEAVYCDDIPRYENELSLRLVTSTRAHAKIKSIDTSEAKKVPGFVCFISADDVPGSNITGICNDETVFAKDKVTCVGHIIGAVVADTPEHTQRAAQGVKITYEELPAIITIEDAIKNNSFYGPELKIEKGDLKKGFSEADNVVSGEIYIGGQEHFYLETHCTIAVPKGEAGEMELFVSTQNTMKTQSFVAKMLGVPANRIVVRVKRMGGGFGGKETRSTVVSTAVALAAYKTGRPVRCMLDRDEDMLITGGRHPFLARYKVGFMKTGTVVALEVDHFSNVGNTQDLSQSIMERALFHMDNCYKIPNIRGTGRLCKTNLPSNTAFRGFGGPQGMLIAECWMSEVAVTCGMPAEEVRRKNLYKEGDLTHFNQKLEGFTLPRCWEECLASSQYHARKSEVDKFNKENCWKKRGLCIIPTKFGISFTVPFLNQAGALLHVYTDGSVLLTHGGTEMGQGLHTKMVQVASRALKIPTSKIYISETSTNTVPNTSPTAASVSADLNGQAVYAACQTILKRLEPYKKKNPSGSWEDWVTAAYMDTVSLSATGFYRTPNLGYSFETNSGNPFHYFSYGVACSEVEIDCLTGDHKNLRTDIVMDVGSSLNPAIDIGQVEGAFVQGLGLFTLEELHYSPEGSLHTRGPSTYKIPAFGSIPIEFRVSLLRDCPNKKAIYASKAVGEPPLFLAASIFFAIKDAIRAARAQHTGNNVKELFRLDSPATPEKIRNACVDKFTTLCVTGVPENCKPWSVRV

As to `Oc1ncnc2[nH]ncc12` [ALLOPURINOL], the IC50 in assay [1] was 3 µM.

Take `COc1cc([C@@H]2c3cc4c(cc3[C@@H](O[C@@H]3O[C@@H]5CO[C@@H](C)O[C@H]5[C@H](O)[C@H]3O)[C@H]3COC(=O)[C@H]23)OCO4)cc(OC)c1O` [ETOPOSIDE]: the IC50 in the assay on MOLT-3 amounted to 0.03 µM; with HepG2, 15.8 µM.

Take `CCC[C@H]1C[C@H]2OC(=O)c3c(cc(OC)c(OC)c3O)[C@H]2O1` [MONOCERIN]: the IC50 was 153 µM in the assay with MOLT-3; over 130 µM in the assay with HL-60; over 648 µM in assay [2]; over 162 µM with HepG2; over 648 µM in assay [1]; over 162 µM in the assay on A549. Besides, the IC50 against Aromatase is over 16.2 µM; in [3] it was over 162 µM; in assay [4], over 324 µM.

Regarding `CCC[C@H](O)C[C@@H]1Cc2cc(OC)c(OC)c(O)c2C(=O)O1` [FUSARENTIN 6,7-DIMETHYLETHER], the IC50 with MOLT-3 is 115 µM; with HL-60 it was over 128 µM; in [2] it was over 644 µM; with HepG2 it was 121 µM; in the assay with A549, over 161 µM; against Aromatase, over 16.1 µM. For the same molecule, the IC50 was over 161 µM in assay [3] and over 322 µM in [4].

For the molecule `CCC[C@@H](O)C[C@H]1OC(=O)c2c(cc(OC)c(OC)c2O)[C@H]1O`, the IC50 in the assay on MOLT-3 was over 153 µM; in the assay on HL-60, over 122 µM; in assay [2], over 612 µM; in [1], 352 µM; against Aromatase it was over 15.3 µM; in assay [4], over 306 µM.

With `O=C1O[C@H]([C@@H](O)CO)C(O)=C1O` [ASCORBIC ACID], the half-maximal inhibitory concentration (IC50) in assay [4] came to 21.2 µM.

`COc1cccc2c1C(=O)c1c(O)c3c(c(O)c1C2=O)C[C@@](O)(C(=O)CO)C[C@@H]3O[C@H]1C[C@H](N)[C@H](O)[C@H](C)O1` [DOXORUBICIN]: the IC50 was 0.29 µM in the assay on HepG2, 0.34 µM in the assay with A549 and 0.67 µM in assay [3].

`CCC[C@H]1C[C@H]2OC(=O)c3c(cc(OC)c(O)c3O)[C@H]2O1`: the half-maximal inhibitory concentration (IC50) with MOLT-3 is 124 µM; in the assay on HL-60 it was over 136 µM; in [2], over 679 µM; with HepG2, 23.7 µM; in [1], 52.6 µM; in the assay with A549, over 170 µM. For the same molecule, the IC50 was over 16.9 µM at Aromatase, over 170 µM in assay [3] and 23.4 µM in assay [4].

With `CCCC(=O)CC[C@H]1OC(=O)c2c1cc(OC)c(OC)c2O` [COLLETOTRIALIDE], the IC50 in the assay on MOLT-3 is 148 µM; in the assay on HL-60, over 130 µM; in assay [2], over 648 µM; with HepG2, over 162 µM; in the assay with A549 it was over 162 µM; against Aromatase, over 16.2 µM. The IC50 in assay [3] is over 162 µM; in assay [4], over 324 µM.

Turning to `CCC[C@H](O)C[C@@H]1Cc2cc(OC)c(O)c(O)c2C(=O)O1` [FUSARENTIN 6-METHYL ETHER], the IC50 with MOLT-3 is over 169 µM; in the assay with HL-60, over 135 µM; in assay [2], over 675 µM; in assay [1], 4.3 µM; on Aromatase it was over 16.8 µM; in assay [4], 16.4 µM.
